According to patent US12668568B2, “Adamantanyl-substituted benzamide compounds and their use as P2X7 receptor antagonists” (The University of Sydney, priority 2018, dated 2026):

How the values were obtained:
[1] = tested on: secreted IL-1β in THP-1 monocytic cells; assay: IL-1β dose-response testing in THP-1 monocytic cell line; type: cell-based; conditions: Homo sapiens; THP-1 treated with interferon-γ and lipopolysaccharide 3 hours, compound 1-1000 nM, ATP stimulation; read-out: LogEC50, secreted IL-1β (converted)
Method: Supernatant was collected to measure the level of secreted IL-1β.
Cells were plated in 48-well Corning cell-bind plates at 2×10^5 cells/well, and treated with recombinant human interferon-γ (10 ng/mL) and lipopolysaccharide (25 ng/mL) for 3 hours. […] Supernatant was collected to measure the level of secreted IL-1ß.
Changes in secreted and intracellular levels of IL-1β were measured by ELISA (RnD systems). Samples were diluted 1 in 2 in commercial diluent, assayed according to manufacturer's instructions and detected at 450/570 nm.

[2] = molecular target: T1, CYP2C19 (Homo sapiens, UniProt P33261); assay: Cytochrome profiling CYP2C19 (baculosomes); type: in vitro ADME; conditions: probe fluorogenic probe substrate (not named), 10 μM substrate
T1 construct: host or cells: insect cells infected with recombinant baculovirus (microsomes)
T1 sequence (P33261 whole entry): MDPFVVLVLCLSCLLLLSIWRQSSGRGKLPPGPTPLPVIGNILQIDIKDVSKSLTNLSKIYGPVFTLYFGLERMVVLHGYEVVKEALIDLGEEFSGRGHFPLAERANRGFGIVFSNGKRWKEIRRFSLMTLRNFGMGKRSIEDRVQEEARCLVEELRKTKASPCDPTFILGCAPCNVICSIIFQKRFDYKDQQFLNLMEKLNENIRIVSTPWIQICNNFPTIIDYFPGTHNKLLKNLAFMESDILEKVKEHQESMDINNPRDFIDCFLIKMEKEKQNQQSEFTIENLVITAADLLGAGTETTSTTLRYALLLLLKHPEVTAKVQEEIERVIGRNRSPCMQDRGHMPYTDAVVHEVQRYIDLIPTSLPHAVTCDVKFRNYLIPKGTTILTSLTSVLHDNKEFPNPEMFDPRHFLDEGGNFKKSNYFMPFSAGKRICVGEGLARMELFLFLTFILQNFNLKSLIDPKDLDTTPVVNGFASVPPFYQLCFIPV
Source text: Cytochrome P450 (abbreviated CYP, P450 or CYP450) belong to very large and diverse superfamily of haemoproteins which accept both exogenous and endogenous compounds as substrates in enzymatic reactions and play a major role in drug metabolism. Although this class has more than 50 enzymes just 5 of them (CYP1A2, CYP2C9, CYP2C19, CYP2D6 and CYP3A4) are able to metabolise almost 90% of all drugs. Inhibition of these enzymes is one of the major reasons for drug-drug interactions. Consequently, detailed CYP inhibition profiles are a regulatory requirement for all new drugs. Inhibition potencies against the five most relevant CYP isoforms is performed using baculosomes; microsomes prepared from insect cells infected with recombinant baculovirus containing cDNA for a specific human P450 isozyme. The baculosomes are incubated with drug at a concentration of 1 μM in the presence of a probe substrate for 60 minutes at 37° C. The probe is normally metabolised by the baculosomes to produce a fluorescent metabolite. A substrate drug will compete for the isozyme and reduce the metabolism of the probe resulting in a decrease in the fluorescent signal. The percent inhibition due to the presence of the test compound is calculated using the following equation: [formula] • X=fluorescent intensity observed in the presence of test compound • A=fluorescent intensity observed in control • B=fluorescent intensity observed in the presence of the probe control

[3] = Plasma protein binding, rapid equilibrium dialysis; type: in vitro ADME; conditions: rat plasma, 4 hours 37° C., read-out: pb (% bound) Plasma (converted)
Method: Determining the extent to which a molecule binds to factors present within plasma and brain is a critical phase of drug development as this determines not only the free unbound fraction available to exert the desired pharmacological actions but also influences dosing, clearance rate and the potential for drug-drug interactions. Binding is measured with the rapid equilibrium dialysis technique using cartridges consisting of two compartments (sample and buffer chamber) separated by a dialysis membrane.
All compounds are prepared in 100% DMSO to provide 10 mM stock solutions. Sample material is prepared by spiking a known volume of plasma or brain with the stock solution such that the final concentration of compound is 1 μM. This is placed in the sample chamber of the dialysis cartridge. Dialysis buffer is then added to the buffer chamber and the cartridge incubated at 37° C. for 4 hours. Following the incubation the test compound concentrations are determined in the two chambers and the % free or bound component calculated using the equation below:
[formula] [formula] In Vivo Pharmacokinetic Studies

[4] = molecular target: T2, hP2X7R (Homo sapiens, UniProt Q99572); assay: Radioligand binding assay, displacement of [3H]-Compound 31, HEK-hP2X7 membranes; conditions: displacement of tritium-labeled benzamide 31-t3, HEK cells expressing hP2X7R; mean ± standard deviation, n >3; read-out: Binding affinity Ki
T2 sequence (Q99572 1-595): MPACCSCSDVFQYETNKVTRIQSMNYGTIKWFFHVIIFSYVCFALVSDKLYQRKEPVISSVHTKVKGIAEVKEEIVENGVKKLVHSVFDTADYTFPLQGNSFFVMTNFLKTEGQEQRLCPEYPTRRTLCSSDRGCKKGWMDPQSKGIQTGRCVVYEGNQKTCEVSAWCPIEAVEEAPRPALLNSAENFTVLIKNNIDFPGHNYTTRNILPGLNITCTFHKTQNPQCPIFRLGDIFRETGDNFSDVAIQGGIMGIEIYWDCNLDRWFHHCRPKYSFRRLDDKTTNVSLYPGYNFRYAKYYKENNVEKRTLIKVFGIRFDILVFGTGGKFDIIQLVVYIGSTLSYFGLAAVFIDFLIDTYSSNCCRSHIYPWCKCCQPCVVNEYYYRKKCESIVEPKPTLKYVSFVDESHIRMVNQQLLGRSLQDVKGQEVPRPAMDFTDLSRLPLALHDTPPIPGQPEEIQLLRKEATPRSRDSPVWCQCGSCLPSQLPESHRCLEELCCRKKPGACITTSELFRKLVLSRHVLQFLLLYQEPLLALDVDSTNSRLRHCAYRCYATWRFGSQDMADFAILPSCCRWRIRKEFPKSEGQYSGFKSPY
Method: Homogenates were centrifuged at 48 000 g for 20 min at 4° C., the supernatant discarded and the pellet resuspended in Tris HCl 50 mM (pH 7.4 at 4° C.). Two additional spins at 48 000 g followed, discarding the supernatant each time and resuspending the pellet in 50 mM Tris HCl each time. Protein content was determined via bicinchoninic acid (BCA) assay (Pierce Biotechnology Inc., Rockford), the membrane solution supplemented with 0.1% bovine serum albumin (BSA) and stored at −80° C.
The incubation was terminated by rapid filtration through a glass fibre filter (GF/B; Millipore, Ireland), presoaked beforehand with 0.3% PEI) and washed 10 times with 50 mM Tris HCl (4° C.). The filters were then allowed to dry overnight before adding Microscint-0 scintillation cocktail (Perkin Elmer). […] For Kd and Bmax determination the specific binding was calculated (total binding minus non-specific binding) and analyzed using a one-site binding model (hyperbolic). The total binding and non-specific binding were also plotted for comparison (see FIG. 4). […] The extra sum of squares F-test was used to evaluate three potential models to fit the data; a one-site fit (with hill slope constrained to 1), a one-site fit (with hill slope as a variable) and a two-site fit. […] The Koff from dissociation studies was calculated using non-linear regression (exponential model) and then, in combination with the data from association studies, used to calculate the Kon. All data were analyzed using GraphPad Prism 5.

| Compound | EC50 [1] [nM] | inhibition at 60 min, 1 μM [2] [%] | fraction unbound at 4 h, 1 μM [3] | Ki [4] [nM] |
| --- | --- | --- | --- | --- |
| COc1ccc(Cl)c(C(=O)NCC23CC4(F)CC(F)(CC(F)(C4)C2)C3)c1 [Compound 1, 2-Chloro-N-((3,5,7-trifluoroadamantan-1-yl)methyl)-5-methoxybenzamide] | 8.53 | 12.9 | 0.105 |  |
| COc1ccc(Cl)c(C(=O)NCC23CC4CC(F)(CC(F)(C4)C2)C3)c1 [Compound 2, 2-Chloro-N-((3,5-difluoroadamantan-1-yl)methyl)-5-methoxybenzamide] |  | 1.5 | 0.115 | 23 ± 5 |
| COc1ccc(Cl)c(C(=O)NCC23CC4CC(CC(F)(C4)C2)C3)c1 [Compound 3, 2-Chloro-N-((3-fluoroadamantan-1-yl)methyl)-5-methoxybenzamide] |  | 46.9 | 0.0597 | 21.9 ± 0.5 |
| COc1ccc(Cl)c(C(=O)NCC23CC4CC(CC(C4)C2)C3)c1 [Compound 31, reference compound] |  | 84.4 | 0.0079 | 8.5 |
